Legend:
[1] = tested on: P. aeruginosa PAO1 (strain DSM22644); assay: G. mellonella larvae survival after PAO1 infection; format: in vivo; conditions: for Final survival percentage of larvae: 3 CFU/Larva, 24 h
Experimental: Bacteria were grown overnight, diluted to OD600 of 0.025 in 10 ml medium, and grown for approx. 2 hours at 37° C. inside a shaker incubator until the OD600 of 1.8-2 is reached. The culture was then serially diluted in sterile PBS (pH=7.2). Bacterial densities of 3000, 300, 30, and 3 CFU/Larva were selected for injection into groups of 15 larvae. A total volume of 5 μl was injected into each larva via the hindmost left proleg by using a syringe pump and Sterican® needles (0.30×12 mm, 30G×½). In addition, control group without injection for the quality of the larvae and a PBS control to monitor the effect of the injection were included in the experiment. All test groups and control groups were incubated at 37° C. in the dark and monitored every 2 hours from 17 hours post-infection.
In vivo evaluation of compounds 162 and 169. Bacteria were cultured and prepared according to the previous section. Final concentrations of 50 μM, 25 μM, and 12.5 μM in combination with 3 CFU/Larva were injected into groups of 15 larvae. In addition to no injection and PBS controls, one group was infected with 3 CFU/Larva and considered the negative control. All test groups and control groups were incubated at 37° C. in the dark and monitored every 2 hours from 17 hours post-infection.

in vitro = in vitro ADME; conditions: mouse, s9
Experimental: For the evaluation of combined phase I and phase II metabolic stability, the compound (1 μM) was incubated with 1 mg/mL pooled liver S9 fraction (Xenotech), 2 mM NADPH, 1 mM UDPGA, 10 mM MgCl2, 5 mM GSH and 0.1 mM PAPS at 37° C. for 0, 5, 15, 30 and 60 min. The metabolic stability of Testosterone (1 μM), verapamil (1 μM) and ketoconazol (1 μM) were determined in parallel to confirm the enzymatic activity of the S9 fraction. The incubation was stopped by precipitation of S9 enzymes with 2 volumes of cold acetonitrile containing internal standard (150 nM Diphenhydramine). Samples were stored on ice for 10 min and precipitated protein was removed by centrifugation (15 min, 4° C., 4,000 rpm). The remaining test compound at different time points was analyzed by LC-MS/MS (TSQ Quantum Access MAX, Thermo Fisher, Dreieich, Germany) and used to determine half-life (t½).

HDAC3 = HDAC3 (Homo sapiens (Human), UniProt O15379); assay: HDAC inhibition; format: biochemical; conditions: read-out: Selectivity IC50 HDAC3
HDAC3, sequence (O15379 whole entry, looked up): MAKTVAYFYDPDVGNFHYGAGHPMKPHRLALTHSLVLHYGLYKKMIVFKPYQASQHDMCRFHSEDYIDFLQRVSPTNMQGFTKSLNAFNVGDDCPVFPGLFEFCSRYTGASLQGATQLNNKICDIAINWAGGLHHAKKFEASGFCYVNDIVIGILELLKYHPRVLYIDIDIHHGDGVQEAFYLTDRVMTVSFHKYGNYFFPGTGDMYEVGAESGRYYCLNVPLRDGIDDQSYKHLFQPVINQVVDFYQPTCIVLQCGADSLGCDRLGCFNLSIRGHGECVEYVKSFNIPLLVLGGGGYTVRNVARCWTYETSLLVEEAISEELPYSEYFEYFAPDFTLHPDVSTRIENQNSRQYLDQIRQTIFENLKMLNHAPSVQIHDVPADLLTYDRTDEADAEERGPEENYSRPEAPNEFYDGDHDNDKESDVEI
HDAC3, sequence (Q9Y618 whole entry partner, looked up): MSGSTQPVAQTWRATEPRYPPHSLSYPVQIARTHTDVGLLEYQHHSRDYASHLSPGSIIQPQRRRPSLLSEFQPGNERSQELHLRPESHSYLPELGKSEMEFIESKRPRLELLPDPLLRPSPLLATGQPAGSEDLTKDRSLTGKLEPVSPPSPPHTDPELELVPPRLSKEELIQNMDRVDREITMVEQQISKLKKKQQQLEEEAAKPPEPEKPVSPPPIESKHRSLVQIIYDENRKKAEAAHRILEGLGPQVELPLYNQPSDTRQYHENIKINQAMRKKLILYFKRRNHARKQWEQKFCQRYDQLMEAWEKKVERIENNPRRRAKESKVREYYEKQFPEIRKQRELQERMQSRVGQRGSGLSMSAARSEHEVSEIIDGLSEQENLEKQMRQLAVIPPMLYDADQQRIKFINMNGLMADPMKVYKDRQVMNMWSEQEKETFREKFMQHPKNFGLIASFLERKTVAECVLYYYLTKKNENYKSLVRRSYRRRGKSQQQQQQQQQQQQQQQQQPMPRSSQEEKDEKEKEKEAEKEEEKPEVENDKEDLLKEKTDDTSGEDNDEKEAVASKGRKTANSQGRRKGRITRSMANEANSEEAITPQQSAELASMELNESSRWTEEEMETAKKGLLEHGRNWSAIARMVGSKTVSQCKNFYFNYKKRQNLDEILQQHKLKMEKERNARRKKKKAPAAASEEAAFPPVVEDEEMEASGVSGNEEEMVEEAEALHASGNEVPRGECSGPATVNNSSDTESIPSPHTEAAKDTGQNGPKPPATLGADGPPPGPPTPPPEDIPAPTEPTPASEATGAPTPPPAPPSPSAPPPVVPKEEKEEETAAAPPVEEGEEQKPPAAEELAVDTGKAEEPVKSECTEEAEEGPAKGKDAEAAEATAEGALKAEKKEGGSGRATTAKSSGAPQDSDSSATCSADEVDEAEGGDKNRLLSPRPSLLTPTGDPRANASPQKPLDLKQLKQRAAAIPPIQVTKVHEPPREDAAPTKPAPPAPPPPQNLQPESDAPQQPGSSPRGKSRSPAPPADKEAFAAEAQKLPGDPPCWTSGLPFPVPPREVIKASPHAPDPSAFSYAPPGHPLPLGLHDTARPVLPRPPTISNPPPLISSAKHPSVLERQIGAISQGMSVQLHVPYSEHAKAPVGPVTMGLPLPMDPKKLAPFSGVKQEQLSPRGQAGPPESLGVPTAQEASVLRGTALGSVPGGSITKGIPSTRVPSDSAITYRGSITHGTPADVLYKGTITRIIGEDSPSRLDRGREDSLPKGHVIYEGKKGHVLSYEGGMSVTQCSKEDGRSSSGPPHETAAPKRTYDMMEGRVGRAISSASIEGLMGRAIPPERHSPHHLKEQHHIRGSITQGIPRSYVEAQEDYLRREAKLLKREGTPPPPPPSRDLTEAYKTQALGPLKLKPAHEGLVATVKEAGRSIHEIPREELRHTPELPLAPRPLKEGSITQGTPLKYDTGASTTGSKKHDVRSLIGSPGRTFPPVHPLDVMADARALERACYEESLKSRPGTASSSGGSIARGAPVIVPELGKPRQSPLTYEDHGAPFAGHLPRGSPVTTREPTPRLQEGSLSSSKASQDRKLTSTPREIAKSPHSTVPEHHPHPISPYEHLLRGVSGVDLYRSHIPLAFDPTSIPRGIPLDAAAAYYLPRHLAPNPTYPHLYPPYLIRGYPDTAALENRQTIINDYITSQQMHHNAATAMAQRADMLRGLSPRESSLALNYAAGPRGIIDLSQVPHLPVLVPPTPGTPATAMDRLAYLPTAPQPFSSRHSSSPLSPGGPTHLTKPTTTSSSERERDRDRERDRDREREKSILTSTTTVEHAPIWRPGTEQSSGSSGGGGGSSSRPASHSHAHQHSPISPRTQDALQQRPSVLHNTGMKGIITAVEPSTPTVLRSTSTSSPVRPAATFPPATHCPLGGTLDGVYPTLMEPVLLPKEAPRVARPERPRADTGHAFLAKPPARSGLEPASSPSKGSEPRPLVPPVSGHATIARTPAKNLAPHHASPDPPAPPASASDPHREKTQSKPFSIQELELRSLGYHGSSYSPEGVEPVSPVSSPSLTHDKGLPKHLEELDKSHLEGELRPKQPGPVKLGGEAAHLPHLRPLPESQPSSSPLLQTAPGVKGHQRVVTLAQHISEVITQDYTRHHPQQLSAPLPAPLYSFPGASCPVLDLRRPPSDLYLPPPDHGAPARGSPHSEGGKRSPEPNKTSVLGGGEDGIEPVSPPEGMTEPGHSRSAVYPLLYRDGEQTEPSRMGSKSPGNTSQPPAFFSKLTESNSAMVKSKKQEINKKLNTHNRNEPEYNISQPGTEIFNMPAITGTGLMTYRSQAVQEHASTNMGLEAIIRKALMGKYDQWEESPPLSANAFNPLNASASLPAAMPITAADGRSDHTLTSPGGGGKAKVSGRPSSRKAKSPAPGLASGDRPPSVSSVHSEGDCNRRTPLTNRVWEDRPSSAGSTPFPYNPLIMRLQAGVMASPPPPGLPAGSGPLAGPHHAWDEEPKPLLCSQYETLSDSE
Experimental: (§1) HDAC3 and HDAC8 Inhibitor Screening Assay kits were purchased from Sigma-Aldrich. The assay was performed according to the guidelines of the manufacturer using trichostatin as a positive control. Fluorescence signals were measured in a CLARIOstar plate reader (BMG Labtech).

HDAC8 = HDAC8 (Homo sapiens (Human), UniProt Q9BY41); assay: HDAC inhibition; format: biochemical; conditions: read-out: Selectivity IC50 HDAC8
HDAC8, sequence (Q9BY41 whole entry): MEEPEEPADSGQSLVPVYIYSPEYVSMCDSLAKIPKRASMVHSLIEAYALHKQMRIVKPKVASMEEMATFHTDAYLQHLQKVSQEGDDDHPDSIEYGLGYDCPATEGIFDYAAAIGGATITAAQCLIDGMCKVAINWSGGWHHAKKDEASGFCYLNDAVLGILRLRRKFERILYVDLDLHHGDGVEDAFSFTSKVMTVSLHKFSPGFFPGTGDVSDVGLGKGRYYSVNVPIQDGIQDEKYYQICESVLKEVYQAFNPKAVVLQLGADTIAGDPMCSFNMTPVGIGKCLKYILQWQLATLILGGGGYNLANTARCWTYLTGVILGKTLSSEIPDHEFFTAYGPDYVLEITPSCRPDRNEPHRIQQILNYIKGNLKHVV
Experimental: as §1

LasB = LasB (Pseudomonas aeruginosa (strain ATCC 15692 / DSM 22644 / CIP 104116 / JCM 14847 / LMG 12228 / 1C / PRS 101 / PAO1), UniProt P14756); assay: In vitro LasB activity assay (fluorogenic substrate); format: biochemical; conditions: LasB 0.3 nM, substrate 150 μM, mean ± SD
LasB, sequence (P14756 198-498): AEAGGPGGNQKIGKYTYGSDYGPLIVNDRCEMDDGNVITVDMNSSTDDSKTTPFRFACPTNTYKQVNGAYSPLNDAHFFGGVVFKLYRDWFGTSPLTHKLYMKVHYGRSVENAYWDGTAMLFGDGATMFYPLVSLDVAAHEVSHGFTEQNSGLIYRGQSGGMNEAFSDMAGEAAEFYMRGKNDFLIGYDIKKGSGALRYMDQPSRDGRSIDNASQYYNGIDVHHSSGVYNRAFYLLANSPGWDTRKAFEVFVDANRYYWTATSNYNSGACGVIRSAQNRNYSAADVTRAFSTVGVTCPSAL
Summary of the method: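 LasB (0.3 nM) preincubated 15 min at 37 °C with compound, then 150 µM Abz-Ala-Gly-Leu-Ala-p-nitrobenzylamide added in 50 mM Tris pH 7.2, 2.5 mM CaCl2, 0.075% Pluronic F-127, 5% DMSO. Fluorescence (ex 340, em 415 nm) followed 60 min at 37 °C. IC50 from blank-corrected v/v0 slopes, nonlinear regression, Hill slope fixed at 1.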

Cytotoxicity assay = format: cell-based; conditions: human
Experimental: HepG2, HEK293 or A549 cells (2×10^5 cells per well) were seeded in 24-well, flat-bottomed plates. Culturing of cells, incubations, and OD measurements were performed as described previously (Int. J. Cancer 2007, 121, 206-210). Twenty-four hours after seeding the cells, the incubation was started by the addition of test compound in a final DMSO concentration of 1%. The living cell mass was determined after 48 h. At least two independent measurements were performed for each compound.

CC(C)CC(C(=O)NO)C(=O)Nc1ccc(Cn2cc(CNS(=O)(=O)CC(C)C)nn2)cc1 (centres unmarked) [Compound 169, 2-(Hydroxycarbamoyl)-N-[4-[[4-[(isobutylsulfonylamino)methyl]triazol-1-yl]methyl]phenyl]-4-methyl-pentanamide]
Final survival percentage of larvae ([1]; 12.5 μM): 53% | Final survival percentage of larvae ([1]; 25 μM): 73% | Final survival percentage of larvae ([1]; 50 μM): 82% | Improvement in survival of larvae compared to negative control ([1]; 50 μM, vs 3 CFU/Larva without treatment): 40% | half-life at 1 μM (in vitro): > 2 h | IC50 (HDAC3): > 100 µM | IC50 (HDAC8): > 100 µM | IC50 (LasB): 0.0052 ± 0.0002 µM | IC50 at 48 h (Cytotoxicity assay; A549 cells): > 100 µM | IC50 at 48 h (Cytotoxicity assay; HEK293 cells): > 100 µM | IC50 at 48 h (Cytotoxicity assay; HepG2 cells): > 100 µM

— patent US20250170104A1, “INHIBITORS OF PSEUDOMONAS AERUGINOSA VIRULENCE FACTOR Lasß” (priority 2022, published 2025)
